# Where two headings read alike, the source gives them in different places.
# Columns and labels:
# DU-145 = experiment: NCI60 5-dose screen, DU-145; type: cell-based; conditions: Homo sapiens, prostate cancer, Fig 1D, read-out: Log10 GI50 (DU-145) (converted)
# Procedure: (§1) The screening methodology used in the NCI60 Cell 5-Doses screen is described in detail at https://dtp.cancer.gov/discovery_development/nci-60/methodology.htm. Briefly, cells are seeded in 96 well plates at an appropriate density and incubated for 1 day. After 1 day, some of the plates are processed to determine a time zero density. To the remaining plates, compounds are added over a 5-log M concentration range (1 log dilutions from 10^-4M to 10^-8M). Plates are incubated for two additional days, then fixed and stained with sulforhodamine B. Growth inhibition is calculated relative to cells without drug treatment and the time zero control. The GI50 is the concentration of a compound that causes 50% growth inhibition, relative to the no drug control.
# SF-295 = experiment: NCI60 5-dose screen, SF-295; type: cell-based; conditions: Homo sapiens, CNS cancer, Fig 1D, read-out: Log10 GI50 (SF-295) (converted)
# Procedure: as §1
# primary cortical neurons = experiment: Neurite outgrowth assay; type: cell-based, Sprague-Dawley rat; conditions: Primary cortical neuron, rat primary cortical neurons, 72 hours
# Procedure: Neurite outgrowth assay was performed by Fluofarma (Pessac, France). Primary cortical neurons were harvested from E19 Sprague-Dawley (Janvier Labs) rat embryos, dissociated and plated at 10,000 per well in a tissue-culture treated 96 well plate, in neuronal medium (SM2 matrix independent growth medium, Stem Cell Technologies). Neurons were followed by phase contrast imaging with 1 image acquired every 4 hours, using an Incucyte Zoom (Essen BioScience) with a 20x objective. Four fields per well were acquired. After 24 hours, cells were treated with test compounds and neurite outgrowth was followed for 72 hours post-treatment. All measures were performed in triplicate in one experiment.
# Neurite outgrowth kinetics were analyzed from each phase contrast image using the Neurotrack module of the Incucyte Zoom platform. Neurite length and branch points were obtained for each time point. The area under the curve (AUC) was calculated in each experimental condition (GraphPad Prism 6, GraphPad Software).
# SF-539 = experiment: NCI60 5-dose screen, SF-539; type: cell-based; conditions: Homo sapiens, CNS cancer, Fig 1D, read-out: Log10 GI50 (SF-539) (converted)
# Procedure: as §1
# MOLT-4 = experiment: NCI60 5-dose screen, MOLT-4; type: cell-based; conditions: Homo sapiens, leukemia, Fig 1D, read-out: Log10 GI50 (MOLT-4) (converted)
# Procedure: as §1
# HOP-62 = experiment: NCI60 5-dose screen, HOP-62; type: cell-based; conditions: Homo sapiens, non-small cell lung cancer, Fig 1D, read-out: Log10 GI50 (HOP-62) (converted)
# Procedure: as §1
# RPMI-8226 = experiment: NCI60 5-dose screen, RPMI-8226; type: cell-based; conditions: Homo sapiens, leukemia, Fig 1D, read-out: Log10 GI50 (RPMI-8226) (converted)
# Procedure: as §1
# BT-549 = experiment: NCI60 5-dose screen, BT-549; type: cell-based; conditions: Homo sapiens, breast cancer, Fig 1D, read-out: Log10 GI50 (BT-549) (converted)
# Procedure: as §1
# TK-10 = experiment: NCI60 5-dose screen, TK-10; type: cell-based; conditions: Homo sapiens, renal cancer, Fig 1D, read-out: Log10 GI50 (TK-10) (converted)
# Procedure: as §1
# NCI-H322M = experiment: NCI60 5-dose screen, NCI-H322M; type: cell-based; conditions: Homo sapiens, non-small cell lung cancer, Fig 1D, read-out: Log10 GI50 (NCI-H322M) (converted)
# Procedure: as §1
# PC-3 = experiment: NCI60 5-dose screen, PC-3; type: cell-based; conditions: Homo sapiens, prostate cancer, Fig 1D, read-out: Log10 GI50 (PC-3) (converted)
# Procedure: as §1
# HCT-116 cells = experiment: 3-day MTS cell viability assay, HCT-116; type: cell-based; conditions: Homo sapiens, 72 hours, Fig 1C
# Procedure: (§2) All cancer cell lines (HT-29: colorectal adenocarcinoma, HCT-116: colorectal carcinoma, A549: lung epithelial carcinoma, PC3: prostate adenocarcinoma, Jurkat: acute T-cell leukemia, BC-1: primary effusion lymphoma) and the normal human embryonal lung fibroblast cell line MRC-5 were acquired from the American Type Culture Collection (ATCC). All cell lines were cultured as recommended by the suppliers. Culture media were purchased from Gibco (Thermo Fisher Scientific) and supplemented with 10 to 20% fetal bovine serum (HyClone, GE Healthcare Life Sciences) and 20–25 μg/mL gentamicin (Gibco, Thermo Fisher Scientific). […]
# (§3) Cell viability in cancer cell lines treated with compound was measured in a 3-day MTS cell proliferation assay using the CellTiter 96 AQueous Non-Radioactive Cell Proliferation Assay reagent (Promega) according to the manufacturer’s instructions. Absorbance was read at 490 nm on a SaFire II microplate reader (Tecan). CC50 values were calculated by fitting the obtained MTS cell viability data in GraphPad Prism using a 4-parameter log–based fit for inhibitors. Apoptosis induction and cell death upon compound treatment in PBMC was measured using the Alexa Fluor 488 Annexin V/Dead Cell Apoptosis Kit (Thermo Fisher Scientific), with readout on a FACSCanto II flow cytometer (BD Biosciences). […] The compounds were evaluated in duplo in two independent experiments.
# SK-MEL-2 = experiment: NCI60 5-dose screen, SK-MEL-2; type: cell-based; conditions: Homo sapiens, melanoma, Fig 1D, read-out: Log10 GI50 (SK-MEL-2) (converted)
# Procedure: as §1
# HS 578T = experiment: NCI60 5-dose screen, HS 578T; type: cell-based; conditions: Homo sapiens, breast cancer, Fig 1D, read-out: Log10 GI50 (HS 578T) (converted)
# Procedure: as §1
# SK-MEL-28 = experiment: NCI60 5-dose screen, SK-MEL-28; type: cell-based; conditions: Homo sapiens, melanoma, Fig 1D, read-out: Log10 GI50 (SK-MEL-28) (converted)
# Procedure: as §1
# A549 cells = experiment: 3-day MTS cell viability assay, A549; type: cell-based; conditions: Homo sapiens, 72 hours, Fig 1C
# Procedure: as §2, §3
# SF-268 = experiment: NCI60 5-dose screen, SF-268; type: cell-based; conditions: Homo sapiens, CNS cancer, Fig 1D, read-out: Log10 GI50 (SF-268) (converted)
# Procedure: as §1
# [1] = read-out: IC50 for branch point formation
# [2] = read-out: IC50 for neurite length
compound,measurement,setting,value
"Cc1cc(C)cc(Nc2ccc([N+](=O)[O-])c(NCCN3CCOCC3)n2)c1 [Compound 4AZA2891, 6-(3,5-dimethylanilino)-2-(2-morpholinoethylamino)-3-nitropyridine]",GI50,DU-145,0.0417 µM
same,GI50,SF-295,< 0.01 µM
same,IC50,primary cortical neurons; [1],0.008 µM
same,IC50,primary cortical neurons; [2],0.01 µM
same,GI50,SF-539,< 0.01 µM
same,GI50,MOLT-4,0.0562 µM
same,GI50,HOP-62,0.0302 µM
same,GI50,RPMI-8226,0.0363 µM
same,GI50,BT-549,0.0589 µM
same,GI50,TK-10,12.9 µM
same,GI50,NCI-H322M,0.0813 µM
same,GI50,PC-3,0.0105 µM
same,IC50,HCT-116 cells,0.0174 µM
same,GI50,SK-MEL-2,0.0347 µM
same,GI50,HS 578T,0.0166 µM
same,GI50,SK-MEL-28,2.75 µM
same,IC50,A549 cells,0.0203 µM
same,GI50,SF-268,0.135 µM
"Cc1ccnc(Nc2ccc([N+](=O)[O-])c(NCCN3CCOCC3)n2)c1 [Compound 4AZA2996, N^6-(4-methylpyridin-2-yl)-N^2-(2-morpholinoethyl)-3-nitropyridine-2,6-diamine]",GI50,DU-145,0.0257 µM
same,GI50,SF-295,< 0.01 µM
same,IC50,primary cortical neurons; [1],0.0074 µM
same,IC50,primary cortical neurons; [2],0.0095 µM
same,GI50,SF-539,< 0.01 µM
same,GI50,MOLT-4,0.0355 µM
same,GI50,HOP-62,< 0.01 µM
same,GI50,RPMI-8226,0.0269 µM
same,GI50,BT-549,0.0191 µM
same,GI50,TK-10,18.6 µM
same,GI50,NCI-H322M,0.0468 µM
same,GI50,PC-3,< 0.01 µM
same,IC50,HCT-116 cells,0.01 µM
same,GI50,SK-MEL-2,0.0302 µM
same,GI50,HS 578T,< 0.01 µM
same,GI50,SK-MEL-28,12.6 µM
same,IC50,A549 cells,0.012 µM
same,GI50,SF-268,0.0589 µM

# Source: article PMC11542830, “3-nitropyridine analogues as novel microtubule-targeting agents” (PLOS ONE, 2024)
